Source: patent US20200038513A1, “MODULATORS OF FAK PROTEOLYSIS AND ASSOCIATED METHODS OF USE” (ARVINAS OPERATIONS, INC., priority 2018, published 2020)

System: MDA-MB-231 cells
Test: RPPA (reverse phase protein array)
Format: cell-based, human
Description: RPPA analysis was performed by MD Anderson Cancer Center RPPA core facility.
Examination of the Molecular Signaling Events) and/or Downstream Pathways Responsible for the Migration and Invasion Effects Observed by Exemplary Compound Treatment. To pinpoint these observations to a molecular signaling event or specific downstream pathway, reverse phase protein array (RPPA) analysis was performed (Table 4).

Structure (SMILES): Cc1ncsc1-c1ccc(CNC(=O)[C@@H]2C[C@@H](O)CN2C(=O)[C@@H](NC(=O)CCOCCOc2ccc(Nc3ncc(C(F)(F)F)c(NCc4cccc(N(C)S(C)(=O)=O)c4)n3)cc2)C(C)(C)C)cc1 [Compound 102, (2S,4R)-1-((S)-3,3-dimethyl-2-(3-(2-(4-((4-((3-(N-methylmethylsulfonamido)benzyl)amino)-5-(trifluoromethyl)pyrimidin-2-yl)amino)phenoxy)ethoxy)propanamido)butanoyl)-4-hydroxy-N-(4-(4-methylthiazol-5-yl)benzyl)pyrrolidine-2-carboxamide]
- rel. Protein level, Mnk1 (500nM): 97.2%
- rel. Protein level, Myosin-11 (500nM): 101.0%
- rel. Protein level, Myosin-IIa_pS1943 (500nM): 113.7%
- rel. Protein level, Myt1 (500nM): 93.2%
- rel. Protein level, N-Cadherin (500nM): 104.0%
- rel. Protein level, N-Ras (500nM): 98.6%
- rel. Protein level, NAPSIN-A (500nM): 99.4%
- rel. Protein level, NDRG1_pT346 (500nM): 118.1%
- rel. Protein level, NDUFB4 (500nM): 100.5%
- rel. Protein level, NF-kB-p65_pS536 (500nM): 108.3%
- rel. Protein level, Notch1 (500nM): 105.8%
- rel. Protein level, Notch3 (500nM): 112.1%
- rel. Protein level, Oct-4 (500nM): 102.3%
- rel. Protein level, P-Cadherin (500nM): 108.3%
- rel. Protein level, PAI-1 (500nM): 106.1%
- rel. Protein level, PAICS (500nM): 98.1%
- rel. Protein level, PAK1 (500nM): 106.0%
- rel. Protein level, PAK4 (500nM): 95.1%
- rel. Protein level, PAR (500nM): 158.2%
- rel. Protein level, PARP (500nM): 104.5%
- rel. Protein level, PCNA (500nM): 97.5%
- rel. Protein level, PD-1 (500nM): 98.8%
- rel. Protein level, PD-L1 (500nM): 95.8%
- rel. Protein level, PDGFR-b (500nM): 124.5%
- rel. Protein level, PDHK1 (500nM): 102.2%
- rel. Protein level, PDK1 (500nM): 99.6%
- rel. Protein level, PDK1_pS241 (500nM): 103.2%
- rel. Protein level, PEA-15 (500nM): 97.9%
- rel. Protein level, PEA-15_pS116 (500nM): 98.0%
- rel. Protein level, PI3K-p85 (500nM): 100.1%
- rel. Protein level, PI3K-p110-a (500nM): 107.4%
- rel. Protein level, PI3K-p110-b (500nM): 94.8%
- rel. Protein level, PKA-a (500nM): 105.1%
- rel. Protein level, PKC-b-II_pS660 (500nM): 93.7%
- rel. Protein level, PKC-delta_pS664 (500nM): 98.8%
- rel. Protein level, PKCa (500nM): 113.3%
- rel. Protein level, PKM2 (500nM): 105.8%
- rel. Protein level, PLC-gamma2_pY759 (500nM): 97.9%
- rel. Protein level, PLK1 (500nM): 95.0%
- rel. Protein level, PMS2 (500nM): 96.4%
- rel. Protein level, PR (500nM): 96.8%
- rel. Protein level, PRAS40 (500nM): 104.0%
- rel. Protein level, PRAS40_pT246 (500nM): 92.3%
- rel. Protein level, PREX1 (500nM): 102.5%
- rel. Protein level, PTEN (500nM): 124.6%
- rel. Protein level, Paxillin (500nM): 91.8%
- rel. Protein level, Pdcd4 (500nM): 120.2%
- rel. Protein level, Porin (500nM): 97.8%
- rel. Protein level, RBM15 (500nM): 105.1%
- rel. Protein level, RIP (500nM): 105.6%
- rel. Protein level, RPA32 (500nM): 98.4%
- rel. Protein level, RPA32_pS4-S8 (500nM): 102.8%
- rel. Protein level, RSK (500nM): 99.0%
- rel. Protein level, Rab11 (500nM): 102.8%
- rel. Protein level, Rab25 (500nM): 100.2%
- rel. Protein level, Rad50 (500nM): 103.9%
- rel. Protein level, Rad51 (500nM): 89.6%
- rel. Protein level, Raptor (500nM): 103.3%
- rel. Protein level, Rb (500nM): 106.3%
- rel. Protein level, Rb_pS807_S811 (500nM): 92.3%
- rel. Protein level, Rheb (500nM): 103.3%
- rel. Protein level, Rictor (500nM): 126.9%
- rel. Protein level, Rictor_pT1135 (500nM): 92.3%
- rel. Protein level, S6 (500nM): 112.2%
- rel. Protein level, S6_pS235_S236 (500nM): 57.3%
- rel. Protein level, S6_pS240_S244 (500nM): 51.9%
- rel. Protein level, b-Actin (500nM): 97.4%
- rel. Protein level, b-Catenin (500nM): 108.4%
- rel. Protein level, b-Catenin_pT41_S45 (500nM): 96.8%
- rel. Protein level, c-Abl (500nM): 95.2%
- rel. Protein level, c-IAP2 (500nM): 100.4%
- rel. Protein level, c-Jun_pS73 (500nM): 92.3%
- rel. Protein level, c-Kit (500nM): 100.1%
- rel. Protein level, c-Met_pY1234_Y1235 (500nM): 101.1%
- rel. Protein level, c-Myc (500nM): 89.2%
- rel. Protein level, cdc2_pY15 (500nM): 92.3%
- rel. Protein level, cdc25C (500nM): 99.5%
- rel. Protein level, eEF2 (500nM): 98.9%
- rel. Protein level, eEF2K (500nM): 110.8%
- rel. Protein level, eIF4E (500nM): 102.9%
- rel. Protein level, eIF4E_pS209 (500nM): 95.8%
- rel. Protein level, eIF4G (500nM): 96.7%
- rel. Protein level, mTOR (500nM): 98.9%
- rel. Protein level, mTOR_pS2448 (500nM): 92.3%
- rel. Protein level, p21 (500nM): 98.7%
- rel. Protein level, p27-Kip-1 (500nM): 101.1%
- rel. Protein level, p27_pT198 (500nM): 100.1%
- rel. Protein level, p38-MAPK (500nM): 93.4%
- rel. Protein level, p38_pT180_Y182 (500nM): 93.4%
- rel. Protein level, p44-42-MAPK (500nM): 112.7%
- rel. Protein level, p53 (500nM): 113.6%
- rel. Protein level, p70-S6K1 (500nM): 109.6%
- rel. Protein level, p70-S6K_pT389 (500nM): 92.3%
- rel. Protein level, p90RSK_pT573 (500nM): 98.5%
- Fak level by RPPA (in words) (10% FBS, 8 hours): Fak degradation
- p-Fak level by RPPA (in words) (10% FBS, 8 hours): reduced levels of p-Fak
- rel. Protein level [%], SCD (antibody SCD, 500nM, n = 2): 94.3%
- rel. Protein level [%], SDHA (antibody SDHA, 500nM, n = 2): 102.0%
- rel. Protein level [%], SF2 (antibody SF2, 500nM, n = 2): 105.3%
- rel. Protein level [%], SHP-2_pY542 (antibody SHP-2_pY542, 500nM, n = 2): 96.4%
- rel. Protein level [%], SLC1A5 (antibody SLC1A5, 500nM, n = 2): 100.8%
- rel. Protein level [%], SOD1- (antibody SOD1-, 500nM, n = 2): 101.4%
- rel. Protein level [%], SOD2 (antibody SOD2, 500nM, n = 2): 103.5%
- rel. Protein level [%], STING (antibody STING, 500nM, n = 2): 136.3%
- rel. Protein level [%], Shc_pY317 (antibody Shc_pY317, 500nM, n = 2): 100.3%
- rel. Protein level [%], Slfn11 (antibody Slfn11, 500nM, n = 2): 96.5%
- rel. Protein level [%], Smac (antibody Smac, 500nM, n = 2): 100.9%
- rel. Protein level [%], Smad1 (antibody Smad1, 500nM, n = 2): 96.6%
- rel. Protein level [%], Smad3 (antibody Smad3, 500nM, n = 2): 110.8%
- rel. Protein level [%], Smad4 (antibody Smad4, 500nM, n = 2): 100.2%
- rel. Protein level [%], Snail (antibody Snail, 500nM, n = 2): 107.4%
- rel. Protein level [%], Sox2 (antibody Sox2, 500nM, n = 2): 105.3%
- rel. Protein level [%], Src (antibody Src, 500nM, n = 2): 103.5%
- rel. Protein level [%], Src_pY419 (antibody Src_pY419, 500nM, n = 2): 98.9%
- rel. Protein level [%], Src_pY527 (antibody Src_pY527, 500nM, n = 2): 91.0%
- rel. Protein level [%], Stat3 (antibody Stat3, 500nM, n = 2): 99.2%
- rel. Protein level [%], Stat3_pY705 (antibody Stat3_pY705, 500nM, n = 2): 119.9%
- rel. Protein level [%], Stat5a (antibody Stat5a, 500nM, n = 2): 111.4%
- rel. Protein level [%], Stathmin-1 (antibody Stathmin-1, 500nM, n = 2): 101.8%
- rel. Protein level [%], Syk (antibody Syk, 500nM, n = 2): 92.8%
- rel. Protein level [%], TAZ (antibody TAZ, 500nM, n = 2): 89.0%
- rel. Protein level [%], TFAM (antibody TFAM, 500nM, n = 2): 107.8%
- rel. Protein level [%], TFRC (antibody TFRC, 500nM, n = 2): 99.8%
- rel. Protein level [%], TIGAR (antibody TIGAR, 500nM, n = 2): 96.8%
- rel. Protein level [%], TRIM25 (antibody TRIM25, 500nM, n = 2): 108.0%
- rel. Protein level [%], TSC1 (antibody TSC1, 500nM, n = 2): 106.5%
- rel. Protein level [%], TTF1 (antibody TTF1, 500nM, n = 2): 102.7%
- rel. Protein level [%], TUFM (antibody TUFM, 500nM, n = 2): 96.9%
- rel. Protein level [%], TWIST (antibody TWIST, 500nM, n = 2): 96.9%
- rel. Protein level [%], Tau (antibody Tau, 500nM, n = 2): 101.7%
- rel. Protein level [%], Transglutaminase (antibody Transglutaminase, 500nM, n = 2): 107.8%
- rel. Protein level [%], Tuberin (antibody Tuberin, 500nM, n = 2): 106.3%
- rel. Protein level [%], Tuberin_pT1462 (antibody Tuberin_pT1462, 500nM, n = 2): 93.5%
- rel. Protein level [%], Tyro3 (antibody Tyro3, 500nM, n = 2): 98.8%
- rel. Protein level [%], U-Histone-H2B (antibody U-Histone-H2B, 500nM, n = 2): 108.7%
- rel. Protein level [%], UBAC1 (antibody UBAC1, 500nM, n = 2): 100.4%
- rel. Protein level [%], UGT1A (antibody UGT1A, 500nM, n = 2): 94.3%
- rel. Protein level [%], ULK1_pS757 (antibody ULK1_pS757, 500nM, n = 2): 100.9%
- rel. Protein level [%], VASP (antibody VASP, 500nM, n = 2): 108.6%
- rel. Protein level [%], VEGFR-2 (antibody VEGFR-2, 500nM, n = 2): 93.7%
- rel. Protein level [%], VHL-EPPK1 (antibody VHL-EPPK1, 500nM, n = 2): 90.7%
- rel. Protein level [%], WIPI1 (antibody WIPI1, 500nM, n = 2): 112.5%
- rel. Protein level [%], WIPI2 (antibody WIPI2, 500nM, n = 2): 108.8%
- rel. Protein level [%], Wee1 (antibody Wee1, 500nM, n = 2): 92.3%
- rel. Protein level [%], Wee1_pS642 (antibody Wee1_pS642, 500nM, n = 2): 94.7%
- rel. Protein level [%], XBP-1 (antibody XBP-1, 500nM, n = 2): 92.8%
- rel. Protein level [%], XPA (antibody XPA, 500nM, n = 2): 96.4%
- rel. Protein level [%], XPF (antibody XPF, 500nM, n = 2): 109.0%
- rel. Protein level [%], XRCC1 (antibody XRCC1, 500nM, n = 2): 104.0%
- rel. Protein level [%], YAP (antibody YAP, 500nM, n = 2): 95.4%
- rel. Protein level [%], YAP_pS127 (antibody YAP_pS127, 500nM, n = 2): 106.2%
- rel. Protein level [%], YB1_pS102 (antibody YB1_pS102, 500nM, n = 2): 92.3%
- rel. Protein level [%], ZAP-70 (antibody ZAP-70, 500nM, n = 2): 92.5%
